Entries after “also recorded” stand apart in the source; their conditions may differ.
Tests used:
Format in all cases: cell-based, human
NO release = experiment: Nitrite assay (NO accumulation from endothelial cells); settings: for effect on E2-induced NO release / production: E2 10 nM 30 min, ICI 10 μM, wortmannin 30 nM; for stimulation of NO release / production (nitrite accumulation): 30 min, E2/αE2 10 nM, insulin 100 nM, acetylcholine
Protocol: NO accumulation from serum-starved endothelial cells was determined by a modified nitrite assay using 2, 3 diaminonaphtalene as described previously.^33 Fluorescence of 1-(H)-naphtotriazole was measured with excitation and emission wavelengths of 365 and 450 nm, respectively. Standard curves were constructed with known amounts of sodium nitrite. Nonspecific fluorescence was determined in the presence of LNMA (3 mM).

PI3-kinase = PI3-kinase assay on p85 immunoprecipitates of endothelial cell lysates; settings: for effect on E2-induced PI3-kinase activation: E2 10 nM 20 min, ICI 10 μM, wortmannin 30 nM; for stimulation of PI3-kinase activity: E2/αE2 10 nM, insulin 100 nM
Protocol: PI3kinase activity in endothelial cell lysates was assayed using the borate thin layer chromatography method, as described.^34 Following a 6 h incubation in serum- and estrogen-deficient medium 199, endothelial cells were treated according to the indicated conditions, washed, and harvested in ice-cold lysis buffer (137 mM NaCl, 20 mM Tris-HCl, pH 7.4, 1 mM CaCl2, 1 mM Mg Cl2, 0.1 mM Na3VO4, 1% NP-40). After pelleting the cell debris, the supernatant was incubated for 1 hour at 4° C. with 5 μL of a rabbit antiserum directed against the p85 regulatory subunit of the PI3-kinase (Upstate Biotechnology, Lake Placid, N.Y.), and immunoprecipitated with the addition of 50 μL of a 1:1 slurry of protein A-agarose for 1 hour at 4° C. Following centrifugation, the immunoprecipitates were washed three times with lysis buffer, three times with 0.1 M Tris-HCl, pH 7.4, 5 mM LiCl, 0.1 mM Na3VO4, followed by two washes with 10 mM Tris-HCl, pH 7.4, 150 mM NaCl, 5 mM EDTA, 0.1 mM Na3VO4.
The immunoprecipitates were then mixed with 50 μL Tris-HCl, pH 7.4, 150 mM NaCl, 5 mM EDTA, 20 μg of phosphatidylinositol (Sigma, Saint Louis, Mo.), 10 μL 100 mM MgCl2 and 5 μL of a 0.88 mM ATP, 20 mM MgCl2 solution, containing 30 μCi of [γ-^32P]ATP (3000 Ci/mmol; NEN Life Science Products, Boston, Mass.). […] The phospholipids were extracted with 160 μL of chloroform/methanol (1:1, v/v). 50 μL of the organic phase, containing the labeled PI3-kinase products were separated by borate thin layer chromatography on glass-backed Silica Gel 60 plates (EM Separations, Gibbstown, N.J.) pretreated with a solution containing 25 mM trans-1,2-diaminocyclohexane-N,N,N′N′-tetraacetic acid (CDTA, Sigma, Saint Louis, Mo.), 66% (v/v) ethanol and 0.06 N NaOH, dried for 1 hour and then baked at 100° C. for 15 minutes. The chromatography was developed with a solution containing 37.5% (v/v) methanol, 30% (v/v) chloroform, 22.5% (v/v) pyridine (Sigma, Saint Louis, Mo.), 1.33% (v/v) formic acid, […] boric acid and 8.5 mM butylated hydroxytoluene (Sigma, Saint Louis, Mo.), briefly dried and exposed to autoradiography.

Akt/PKB = experiment: Akt kinase assay (immunoprecipitated Akt, GSK-3 peptide); settings: for stimulation of Akt kinase activity (words): E2/αE2 10 nM, insulin 100 nM
Protocol: Immunoprecipitated Akt kinase activity was assayed on endothelial cell lysates by using the Aktl/PKBα immunoprecipitation kinase assay kit (Upstate Biotechnology, Lake Placid, N.Y.). Endothelial cells were starved in phenol red-free199 medium with 0.4% estrogen-deprived FBS, treated, washed, and then harvested in ice-cold Buffer A (50 mM Tris-HCl, pH 7.5, 1 mM EDTA, 1 mM EGTA, […] Na3VO4, 0.1% (v/v) 2-mercaptoethanol, 1% Triton X-100, 50 mM sodium fluoride, 5 mM sodium pyrophosphate, 10 mM sodium glycerophosphate, 0.1 mM PMSF, 1 μg/mL of aprotinin, pepstatin, leupeptin and 1 μM microcystin). The cleared cell lysates were incubated for 1 hour at 4° C. with 4 μg/tube of anit-Akt1/PKBα PH domain immunoaffinity purified sheep IgG, after which 50 μL of a 1:1 (v/v) protein G-agarose slurry was added for an additional hour of incubation at 4° C. After centrifugation, the immunoprecipitates were washed three times with Buffer A containing 0.5 M NaCl, then two times with Buffer B (50 mM Tris-HCl, pH 7.5, 0.03% (w/v) Brij-35, 0.1 mM EGTA, 0.1% (v/v) 2-mercaptoethanol), and finally twice with 1×Assay Buffer (20 mM MOPS, pH 7.2, 25 mM β-glycerol phosphate, 5 mM EGTA, 1 mM Na3VO4, 1 mM DTT).
The immunoprecipitates were resuspended in 10 μL of ice-cold 1×Assay Buffer, and were sequentially added: 10 μL of 40 μM PKA inhibitor peptide ([…]-NH2—corresponding to residues 7-23 of human PKA inhibitor), 10 μL of Akt/PKB specific substrate peptide (100 μM) (RPRAATF—corresponding to the phosphorylation site of glycogen synthase kinase-3, specifically targeted by Akt/PKB, but not by other protein kinases such as Rsk-2 and p70 S6 kinase), and 10 μL of [γ-^32P]ATP stock solution (1×Assay Buffer with 500 μM ATP, 75 mM MgCl2, containing 1 μCi/μL [γ^32-P]ATP, 3000 Ci/mmol). The reaction was incubated at 37° C. for 30 minutes, after which 40 μL of the supernatant was mixed with 20 μL of 40% TCA and incubated for 5 minutes at room temperature. 40 μL of each final fraction were spotted onto the center of a 2 cm×2 cm P81 phosphocellulose paper. The assay squares were washed three times with 0.75% phosphoric acid for five minutes at room temperature, then once with acetone. The squares were then transferred to vials containing a liquid scintillation cocktail and read in a scintillation counter. Blank reaction for the detection of the unspecific background were performed by substituting the cell lysate with Buffer A at the beginning of the procedure, and aspecific endogenous phosphorylation of proteins in the sample extract was estimated by substituting in some samples 1×Assay Buffer for the Akt/PKB specific substrate peptide.

Row | Molecule | effect on E2-induced NO release / production (NO release) | effect on E2-induced NO release / production (NO release; listed as ICI 182,780) | effect on acetylcholine-induced NO accumulation (NO release; acetylcholine 30 min) | effect on E2-induced PI3-kinase activation (PI3-kinase) | effect on E2-induced PI3-kinase activation (PI3-kinase; listed as ICI 182,780) | effect on E2-stimulated Akt kinase activity (Akt/PKB; ICI 10 μM, wortmannin 30 nM) | stimulation of NO release / production (nitrite accumulation) (NO release) | stimulation of NO release / production (nitrite accumulation) (NO release; listed as Insulin) | stimulation of PI3-kinase activity (PI3-kinase; 20 min) | stimulation of PI3-kinase activity (PI3-kinase; 20 min, listed as Insulin) | stimulation of Akt kinase activity (words) (Akt/PKB; 20 min) | stimulation of Akt kinase activity (words) (Akt/PKB; 20 min, listed as Insulin) | increase in PI3-kinase activity compared to baseline (PI3-kinase; E2 10 nM, 20 min) | PI3-kinase activity in the initial phase of stimulation (PI3-kinase; E2 10 nM, ≤10 min) | increase in Akt kinase activity after 10 min (Akt/PKB; E2 stimulation, 10 min) [fold] | increase in Akt kinase activity after 20 min (Akt/PKB; E2 stimulation, 20 min) [fold]
1 | C[C@]12CC[C@@H]3c4ccc(O)cc4C[C@@H](CCCCCCCCC[S+]([O-])CCCC(F)(F)C(F)(F)F)[C@H]3[C@@H]1CC[C@@H]2O (stereo partly shown) [ICI 187,780] | completely blocked | prevent | not influenced; also recorded: not affected | full inhibition; also recorded: completely inhibited | completely blocked | nearly completely abolished; also recorded: almost completely inhibited | – | – | – | – | – | – | – | – | – | –
2 | insulin: known activator of the PI3-kinase/Akt pathway | – | – | – | – | – | – | able to stimulate | activates nitrite release | comparable increase | marked activation | substantial increase | marked activation | – | – | – | –
3 | 17β-estradiol [E2] | – | – | – | – | – | – | increases NO release | – | strong activation | – | activated; also recorded: stimulated | – | approximately 5 fold | little or no PI3-kinase activity | 1.5 | 2.3

From patent publication US6566081B1, “Methods of identifying a compound which modulates the non-transcriptional non-map-kinase induced effects of steroid hormones” (The Brigham and Women's Hospital, Inc., priority 1999, dated 2003)
